Consider four compounds from article PMC9917560, “Design, Synthesis and Antimicrobial Evaluation of New N-(1-Hydroxy-1,3-dihydrobenzo[c][1,2]oxaborol-6-yl)(hetero)aryl-2-carboxamides as Potential Inhibitors of Mycobacterial Leucyl-tRNA Synthetase” (International Journal of Molecular Sciences, 2023).

Converted amounts (≈) assume the structure as drawn. Like-named read-outs stand apart in the source and are kept apart here.

What all share (type): cell-based
Test [1] concerns Mycobacterium tuberculosis H37Ra ITM-M006710 (ATCC 9431). Description: Antimycobacterial microdilution (resazurin) vs Mtb H37Ra. The note with it: Middlebrook 7H9, resazurin, recalculated from µg/mL, read-out: MIC Mtb H37Ra.
Test [2] deals with Mycobacterium tuberculosis H37Rv CNCTC My 331/88 (ATCC 27294). Briefly: Microplate Alamar Blue assay vs Mtb H37Rv. The note with it: Mycobacterium tuberculosis, pH 6.6, MABA, Middlebrook 7H9 pH 6.6, recalculated from µg/mL; read-out: MIC Mtb H37Rv.
Test [3] relates to Mycobacterium kansasii DSM 44,162 (ATCC 12478). Description: Antimycobacterial microdilution (resazurin) vs M. kansasii. The note with it: Middlebrook 7H9, resazurin, read-out: MIC M. kansasii.
Test [4] has as its system Mycobacterium avium DSM 44,156 (ATCC 25291). Description: Antimycobacterial microdilution (resazurin) vs M. avium. The following applies: Mycobacterium avium, Middlebrook 7H9, resazurin; read-out: MIC M. avium.
Test [5] relates to Mycolicibacterium aurum DSM 43,999 (ATCC 23366). Briefly: Antimycobacterial microdilution (resazurin) vs M. aurum. The following applies: Middlebrook 7H9, resazurin, read-out: MIC M. aurum. (In broth dilution the organism is exposed to a series of concentrations in liquid medium.)
For test [6], the system named is Mycolicibacterium smegmatis DSM 43,465 (ATCC 607). Description: Antimycobacterial microdilution (resazurin) vs M. smegmatis. The following applies: Middlebrook 7H9, resazurin, read-out: MIC M. smeg.
The subject of test [7] is Candida albicans CCM 8320 (ATCC 24433). Briefly: Antifungal microdilution broth (EUCAST). The note with it: for MIC: read-out: MIC (visual detection).
Test [8] deals with Candida krusei CCM 8271 (ATCC 6258). Description: Antifungal microdilution broth (EUCAST). The note with it: Pichia kudriavzevii; for MIC: read-out: MIC (visual detection).
Test [9] deals with Candida parapsilosis CCM 8260 (ATCC 22019). Briefly: Antifungal microdilution broth (EUCAST). The following applies: Lodderomyces parapsilosis; for MIC: read-out: MIC (visual detection).
Test [10] has as its system Candida tropicalis CCM 8264 (ATCC 750). Briefly: Antifungal microdilution broth (EUCAST). The note with it: for MIC: read-out: MIC (visual detection).
Test [11] concerns Aspergillus fumigatus ATCC 204305. Description: Antifungal microdilution broth (EUCAST). The note with it: for MIC: read-out: MIC (visual detection).
Test [12] concerns Aspergillus flavus CCM 8363. Description: Antifungal microdilution broth (EUCAST). The note with it: for MIC: read-out: MIC (visual detection).
Test [13] relates to Lichtheimia corymbifera CCM 8077. Briefly: Antifungal microdilution broth (EUCAST). The following applies: for MIC: read-out: MIC (visual detection).
Test [14] concerns Trichophyton interdigitale CCM 8377 (ATCC 9533). Description: Antifungal microdilution broth (EUCAST). The following applies: for MIC: read-out: MIC (visual detection).
For test [15], the system named is Staphylococcus aureus subsp. aureus CCM 4223 (ATCC 29213). Briefly: Antibacterial microdilution broth (EUCAST).
For test [16], the system named is methicillin-resistant Staphylococcus aureus subsp. aureus (MRSA) CCM 4750 (ATCC 43300). Description: microbe, parasite or virus in culture. The note with it: 24 h.
In test [17] the test system is Staphylococcus epidermidis CCM 4418 (ATCC 12228). Description: Antibacterial microdilution broth (EUCAST).
Test [18] concerns Enterococcus faecalis CCM 4224 (ATCC 29212). Description: Antibacterial microdilution broth (EUCAST). The following applies: 24 h.
For test [19], the system named is Escherichia coli CCM 3954 (ATCC 25922). Briefly: Antibacterial microdilution broth (EUCAST). The following applies: Escherichia coli.
Test [20] relates to Klebsiella pneumoniae CCM 4415 (ATCC 10031). Briefly: Antibacterial microdilution broth (EUCAST). The note with it: Klebsiella pneumoniae.
Test [21] relates to Acinetobacter baumannii DSM 30007 (ATCC 19606). Description: Antibacterial microdilution broth (EUCAST). The following applies: 24 h.
The test system of test [22] is Pseudomonas aeruginosa CCM 3955 (ATCC 27853). Briefly: Antibacterial microdilution broth (EUCAST).
Setting [23] is: read-out: MIC (spectrophotometric detection, 530 nm).
The mark [24] stands for this setting: read-out: MIC (visual detection).
[25] abbreviates: 24 h, read-out: IC50 (spectrophotometric detection, 530 nm).

In the case of `O=C(O)c1cn(C2CC2)c2cc(N3CCNCC3)c(F)cc2c1=O` [CIP, ciprofloxacin, reference compound], the MIC in test [1] is 1.51 µM (≈ 0.5 µg/mL); in test [2], 0.6 µM (≈ 0.199 µg/mL); in test [3], 0.75 µM (≈ 0.249 µg/mL); in [4] it was 1.51 µM (≈ 0.5 µg/mL); in [5], 0.05 µM (≈ 0.0166 µg/mL); in test [6], 0.19 µM (≈ 0.063 µg/mL).
The IC90 is the concentration at which the effect reaches the 90% level. As to `C[C@@H]1[C@H](O)[C@@H](C)/C=C/C=C/C=C/C=C/C=C/C=C/C=C/[C@H](O[C@@H]2O[C@H](C)[C@@H](O)[C@H](N)[C@@H]2O)C[C@@H]2O[C@](O)(C[C@@H](O)C[C@@H](O)[C@H](O)CC[C@@H](O)C[C@@H](O)CC(=O)O[C@H]1C)C[C@H](O)[C@H]2C(=O)O` [amphotericin B, reference compound], the IC90 in test [7] (Candida albicans CCM 8320, 24 h, read-out: IC90 (spectrophotometric detection, 530 nm)) was determined as 1080 nM; in test [8] (Candida krusei CCM 8271, 24 h, read-out: IC90 (spectrophotometric detection, 530 nm)), 1080 nM; in test [9] (Candida parapsilosis CCM 8260, 24 h, read-out: IC90 (spectrophotometric detection, 530 nm)), 541 nM; in test [10] (ATCC 750 / CCM 8264 / CCM 8321, CCM 8321, 24 h, read-out: IC90 (spectrophotometric detection, 530 nm)), 1080 nM; in test [11] (ATCC204305, Aspergillus fumigatus ATCC 204305, 48 h, read-out: IC90 (spectrophotometric detection, 530 nm)) it was 4330 nM; in test [12] (CCM8363, Aspergillus flavus CCM 8363, 48 h, read-out: IC90 (spectrophotometric detection, 530 nm)) it was 4330 nM. The IC90 in [13] (CCM8077, Lichtheimia corymbifera CCM 8077, 48 h, read-out: IC90 (spectrophotometric detection, 530 nm)) was found to be 1080 nM; in test [14] (Trichophyton interdigitale CCM 8377, read-out: IC90 (spectrophotometric detection, 530 nm)) it was 1080 nM. The MIC in test [7] (Candida albicans CCM 8320, 24 h) is 1.08 µM (≈ 1 µg/mL); in [8] (Candida krusei CCM 8271, 24 h) it was 1.08 µM (≈ 1 µg/mL); in test [9] (Candida parapsilosis CCM 8260, 24 h), 0.541 µM (≈ 0.5 µg/mL); in test [10] (ATCC 750 / CCM 8264 / CCM 8321, CCM 8321, 24 h), 1.08 µM (≈ 1 µg/mL); in [11] (ATCC204305, Aspergillus fumigatus ATCC 204305, 48 h), 4.33 µM (≈ 4 µg/mL); in test [12] (CCM8363, Aspergillus flavus CCM 8363, 48 h) it was 4.33 µM (≈ 4 µg/mL). The MIC is 1.08 µM (≈ 1 µg/mL) in test [13] (CCM8077, Lichtheimia corymbifera CCM 8077, 48 h) and 1.08 µM (≈ 1 µg/mL) in test [14] (Trichophyton interdigitale CCM 8377).
With `CNC(C)C1CCC(N)C(OC2C(N)CC(N)C(OC3OCC(C)(O)C(NC)C3O)C2O)O1` (stereo not drawn) [gentamicin, reference compound], the MIC is 2.09 µM (≈ 1 µg/mL) in test [15] (S. aureus CCM 4223, 95% growth inhibition, 24 h, read-out: MIC (spectrophotometric detection, 530 nm)); 1.05 µM (≈ 0.5 µg/mL) in test [15] (S. aureus CCM 4223, 24 h, read-out: MIC (visual detection)); over 16.8 µM in test [16] (setting [23]); over 16.8 µM in [16] (setting [24]); 0.131 µM (≈ 0.0626 µg/mL) in test [17] (S. epidermidis CCM 4418, 95% growth inhibition, 24 h, read-out: MIC (spectrophotometric detection, 530 nm)); 0.131 µM (≈ 0.0626 µg/mL) in test [17] (S. epidermidis CCM 4418, 24 h, read-out: MIC (visual detection)). The MIC was over 16.8 µM in test [18] (setting [23]); over 16.8 µM in test [18] (setting [24]); 2.09 µM (≈ 1 µg/mL) in test [19] (E. coli CCM 3954, 95% growth inhibition, 24 h, read-out: MIC (spectrophotometric detection, 530 nm)); over 2.09 µM in [19] (E. coli CCM 3954, 24 h, read-out: MIC (visual detection)); 1.05 µM (≈ 0.5 µg/mL) in test [20] (K. pneumoniae CCM 4415, 95% growth inhibition, 24 h, read-out: MIC (spectrophotometric detection, 530 nm)); 1.05 µM (≈ 0.5 µg/mL) in test [20] (K. pneumoniae CCM 4415, 24 h, read-out: MIC (visual detection)). Besides, the MIC in test [21] (setting [23]) was 16.8 µM (≈ 8 µg/mL); in [21] (setting [24]), 16.8 µM (≈ 8 µg/mL); in test [22] (P. aeruginosa CCM 3955, 95% growth inhibition, 24 h, read-out: MIC (spectrophotometric detection, 530 nm)), 1.05 µM (≈ 0.5 µg/mL); in test [22] (P. aeruginosa CCM 3955, 24 h, read-out: MIC (visual detection)), 1.05 µM (≈ 0.5 µg/mL).
By IC50 is commonly meant the concentration needed to halve the response being measured. As to `C[C@@H](c1ncncc1F)[C@](O)(Cn1cncn1)c1ccc(F)cc1F` [voriconazole, reference compound], the IC50 in test [7] (Candida albicans, 24 h, read-out: IC50 (spectrophotometric detection, 530 nm)) came to 86 nM; in [8] (setting [25]), 716 nM; in test [9] (setting [25]) it was 86 nM; in test [10] (ATCC 750 / CCM 8264 / CCM 8321, 24 h, read-out: IC50 (spectrophotometric detection, 530 nm)), 179 nM; in test [11] (Aspergillus fumigatus, ATCC204305, 48 h, read-out: IC50 (spectrophotometric detection, 530 nm)), 716 nM; in [12] (Aspergillus flavus, CCM8363, 48 h, read-out: IC50 (spectrophotometric detection, 530 nm)) it was 5730 nM. The IC50 in [13] (Lichtheimia corymbifera, CCM8077, 48 h, read-out: IC50 (spectrophotometric detection, 530 nm)) is over 45800 nM; in [14] (Trichophyton interdigitale, read-out: IC50 (spectrophotometric detection, 530 nm)), 2860 nM. The MIC in test [7] (Candida albicans, 24 h) is over 45.8 µM; in test [8] (24 h) it was over 45.8 µM; in test [9] (24 h), over 45.8 µM; in test [10] (ATCC 750 / CCM 8264 / CCM 8321, 24 h), over 45.8 µM; in test [11] (Aspergillus fumigatus, ATCC204305, 48 h) it was 2.86 µM (≈ 1 µg/mL); in test [12] (Aspergillus flavus, CCM8363, 48 h) it was over 45.8 µM. Also, the MIC is over 45.8 µM in test [13] (Lichtheimia corymbifera, CCM8077, 48 h) and over 45.8 µM in [14] (Trichophyton interdigitale).
